From US20070135499A1 (Aerie Pharmaceuticals, Inc., priority 2005, published 2007)
pKi: −log10 of the molar value.

Tests used:
hGRK-2 = biological target: T1, hGRK-2 (Homo sapiens, UniProt P25098); assay: luciferase-based (Kinase-Glo) biochemical kinase inhibition assay, hGRK-2; details: luciferase assay, casein substrate, 10 μM ATP; read-out: GRK-2 inhibition, Ki class
T1 sequence (P25098 1-689): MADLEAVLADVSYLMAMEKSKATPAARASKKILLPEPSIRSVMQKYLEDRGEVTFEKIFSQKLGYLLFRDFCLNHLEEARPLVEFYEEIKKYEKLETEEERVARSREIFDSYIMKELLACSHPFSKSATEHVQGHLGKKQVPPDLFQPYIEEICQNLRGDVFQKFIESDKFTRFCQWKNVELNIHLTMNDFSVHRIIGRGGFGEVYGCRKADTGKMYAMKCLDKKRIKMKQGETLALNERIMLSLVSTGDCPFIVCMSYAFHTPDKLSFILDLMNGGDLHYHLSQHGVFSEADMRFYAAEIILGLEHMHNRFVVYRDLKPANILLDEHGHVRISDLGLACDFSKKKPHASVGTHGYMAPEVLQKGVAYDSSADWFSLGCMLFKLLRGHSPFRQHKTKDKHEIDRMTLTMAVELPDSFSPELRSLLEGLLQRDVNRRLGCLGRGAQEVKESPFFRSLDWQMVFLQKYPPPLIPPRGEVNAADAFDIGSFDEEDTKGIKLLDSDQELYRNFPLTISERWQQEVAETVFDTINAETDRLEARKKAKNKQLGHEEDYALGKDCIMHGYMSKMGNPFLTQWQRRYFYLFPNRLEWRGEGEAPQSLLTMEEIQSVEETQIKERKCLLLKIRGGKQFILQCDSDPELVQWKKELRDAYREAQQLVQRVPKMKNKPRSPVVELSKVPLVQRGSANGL
How it was run: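 Final conditions: 50 nM hGRK2, 20 μM casein, 10 μM ATP and 50 μM test compound in 4.5% DMSO, in HEPES pH 7.5 buffer with MgCl2, orthovanadate, CHAPS, BSA and DTT. Incubation ran 90-120 min at room temperature, targeting 20-30% ATP consumption. Remaining ATP was read by luminescence with diluted Kinase-Glo containing 0.01% trypan blue.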

GRK-3 = biological target: T2, GRK-3 (Homo sapiens, UniProt P35626); assay: luciferase-based biochemical kinase inhibition assay, GRK-3; details: same luciferase assay; read-out: GRK-3 inhibition, Ki class
T2 sequence (P35626 1-688): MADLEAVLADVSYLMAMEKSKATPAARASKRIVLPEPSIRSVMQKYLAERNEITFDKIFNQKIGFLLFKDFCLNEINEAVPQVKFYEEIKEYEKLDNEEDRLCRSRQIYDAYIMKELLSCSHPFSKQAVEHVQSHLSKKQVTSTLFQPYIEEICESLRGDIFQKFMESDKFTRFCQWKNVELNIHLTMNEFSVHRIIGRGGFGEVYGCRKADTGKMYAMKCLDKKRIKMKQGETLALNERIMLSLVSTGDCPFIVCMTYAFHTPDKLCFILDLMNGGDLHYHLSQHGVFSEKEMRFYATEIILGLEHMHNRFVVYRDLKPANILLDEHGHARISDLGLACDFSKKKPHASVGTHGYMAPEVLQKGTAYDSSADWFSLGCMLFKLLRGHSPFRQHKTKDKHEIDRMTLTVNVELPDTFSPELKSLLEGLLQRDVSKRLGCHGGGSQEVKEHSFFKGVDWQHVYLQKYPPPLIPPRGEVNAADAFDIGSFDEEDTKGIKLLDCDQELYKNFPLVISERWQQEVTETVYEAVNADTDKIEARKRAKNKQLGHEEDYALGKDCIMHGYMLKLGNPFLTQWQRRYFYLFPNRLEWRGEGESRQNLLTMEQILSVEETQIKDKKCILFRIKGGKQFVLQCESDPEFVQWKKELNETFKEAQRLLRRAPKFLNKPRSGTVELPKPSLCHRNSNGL
Description: The inhibition of G-protein-coupled receptor kinases including hGRK-2 was determined for the hydrazide compounds using a biochemical assay. The inhibition of GRK-3, GRK-5 and GRK-6 was also determined using the same assay for some of the hydrazide derivatives.
(§1) The protein kinase inhibition was determined using a biochemical assay utilizing the light emission of a luciferase reaction. The luciferase-based assay operates on the following reaction principles: [drawing 10]
(§2) An inhibitor of GRK-2 will increase in the amount of ATP in solution, as shown. Thus, an inhibitor of GRK-2 will drive the luciferase reaction to the right, resulting in more light emitted. The amount of light emitted is proportional to the inhibition resulting from the GRK-2 inhibitor. The luciferase-based assay was also used to test some of the hydrazides for the inhibition properties towards other kinases.

GRK-5 = GRK-5 (Homo sapiens, UniProt P34947); assay: luciferase-based biochemical kinase inhibition assay, GRK-5; details: same luciferase assay; read-out: GRK-5 inhibition, Ki class
GRK-5, sequence (P34947 whole entry, species assumed): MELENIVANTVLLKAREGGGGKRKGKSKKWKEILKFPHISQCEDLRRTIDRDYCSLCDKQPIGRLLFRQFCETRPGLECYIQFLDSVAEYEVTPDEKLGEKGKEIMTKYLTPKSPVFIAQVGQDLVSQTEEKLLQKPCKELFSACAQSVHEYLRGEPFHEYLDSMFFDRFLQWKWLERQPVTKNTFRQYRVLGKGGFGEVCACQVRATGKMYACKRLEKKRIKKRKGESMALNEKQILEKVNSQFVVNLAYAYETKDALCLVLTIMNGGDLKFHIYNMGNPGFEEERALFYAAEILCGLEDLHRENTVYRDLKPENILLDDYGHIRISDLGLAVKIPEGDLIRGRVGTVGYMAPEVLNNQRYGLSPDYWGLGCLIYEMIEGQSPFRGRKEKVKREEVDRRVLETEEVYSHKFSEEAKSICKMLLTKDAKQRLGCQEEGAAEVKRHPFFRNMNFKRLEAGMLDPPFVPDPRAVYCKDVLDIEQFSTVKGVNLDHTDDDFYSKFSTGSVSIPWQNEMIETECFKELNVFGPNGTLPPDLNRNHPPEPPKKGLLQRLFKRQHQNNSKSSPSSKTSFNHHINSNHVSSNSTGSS
Description: The inhibition of G-protein-coupled receptor kinases including hGRK-2 was determined for the hydrazide compounds using a biochemical assay. […] The inhibition of GRK-3, GRK-5 and GRK-6 was also determined using the same assay for some of the hydrazide derivatives.
as §1, §2

[1] = system: porcine trabecular meshwork (PTM) cells; assay: Cell-based porcine trabecular meshwork (PTM) assay, actin-fiber length; parameters: key: +++: More active than control-; ++: As active as control; +: Less active than control; −: Inactive; details: activity at 50 μM as compared to control
Description: Cell-based porcine trabecular meshwork (PTM) assay.
The anterior section of porcine eyes was harvested within 4 hours post-mortem. The iris and ciliary body were removed and trabecular meshwork cells were harvested by blunt dissection. Finely minced trabecular meshwork tissue was plated into collagen-coated 6-well plates in Medium-199 containing 20% fetal bovine serum (FBS). After two passages at confluence, cells were transferred to low-glucose DMEM containing 10% FBS. Cells were used between […].
Cells were plated into fibronectin-coated, glass multiwell plates the day before compound testing under standard culture conditions. Compounds were added to cells in the presence of 1% FBS-containing DMEM and 1% DMSO. When compounds were incubated with the cells for the duration determined to be optimal, the media and compound is removed and cells fixed for 20 minutes in 3% methanol-free paraformaldehyde. Cells were rinsed twice with phosphate buffered saline (PBS) and cells are permeabilized with 0.5% Triton X-100 for two minutes. Following an additional two washes with PBS, F-actin was stained with Alexa-fluor 488-labelled phalloidin and nuclei are stained with DAPI.
Data was reduced to the mean straight actin-fiber length and normalized to DMSO-treated control cells (100%) and 50 μM Y-27632 (0%). Y-27632 is a rho-kinase inhibitor known to result in the depolymerization of F-actin in these cells.
The cellular assay described in Reference Example Two was used to test some of the foregoing Examples 1-101, the results of which are presented below. The results are provided in terms activity at 50 μM as compared to control

Row | pKi (hGRK-2) | pKi (GRK-3) | pKi (GRK-5) | Compound | PTM Cell Assay Result [1]
1 | 6.00 to 7.00 | 6.00 to 7.00 | < 5.00 | CNC(=O)c1cccc(NCC(=O)N/N=C/c2ccncc2)c1 [Example 52, N-Methyl-3-{[1-pyridin-4-yl-meth-(E)-ylidene-hydrazinocarbonylmethyl]-amino}-benzamide] | 
2 | 6.00 to 7.00 | 5.00 to 6.00 | < 5.00 | O=C(CNc1cccc(Cl)c1)N/N=C/c1ccncc1 [Example 37, (3-Chloro-phenylamino)-acetic acid [1-pyridin-4-yl-meth-(E)-ylidene]-hydrazide] | 
3 | 6.00 to 7.00 | 7.00 to 8.00 |  | O=C(CNc1cccc(C(=O)Nc2ccccc2)c1)N/N=C/c1ccncc1 [Example 96, N-Phenyl-3-{[1-pyridin-4-yl-meth-(E)-ylidene-hydrazinocarbonylmethyl]-amino}-benzamide] | 
4 | 6.00 to 7.00 | 6.00 to 7.00 | 5.00 to 6.00 | O=C(CNc1cccc(OCc2ccccc2)c1)N/N=C/c1ccncc1 [Example 47, (3-Benzyloxy-phenylamino)-acetic acid [1-pyridin-4-yl-meth-(E)-ylidene]-hydrazide] | 
5 | 6.00 to 7.00 | 6.00 to 7.00 | < 5.00 | C/C(=N\NC(=O)CNc1cccc(Oc2ccccc2)c1)c1ccncc1 [Example 89, (3-Phenoxy-phenylamino)-acetic acid [1-pyridin-4-yl-eth-(E)-ylidene]-hydrazide] | 
6 | 6.00 to 7.00 | < 5.00 | < 5.00 | CCOc1cccc(NCC(=O)N/N=C/c2c(Cl)cncc2Cl)c1 [Example 21, (3-Ethoxy-phenylamino)-acetic acid [1-(3,5-dichloro-pyridin-4-yl)-meth-(E)-ylidene]-hydrazide] | 
7 | 6.00 to 7.00 | 6.00 to 7.00 | 5.00 to 6.00 | CSc1cccc(NCC(=O)N/N=C/c2c(Cl)cncc2Cl)c1 [Example 10, (3-Methylsulfanyl-phenylamino)-acetic acid [1-(3,5-dichloro-pyridin-4-yl)-meth-(E)-ylidene]-hydrazide] | 
8 | 6.00 to 7.00 | 5.00 to 6.00 | 5.00 to 6.00 | O=C(CNc1cccc(F)c1)N/N=C/c1c(Cl)cncc1Cl [Example 4, (3-Fluoro-phenylamino)-acetic acid [1-(3,5-dichloro-pyridin-4-yl)-meth-(E)-ylidene]-hydrazide] | 
9 | 6.00 to 7.00 | 5.00 to 6.00 | < 5.00 | O=C(CNc1cccc(F)c1)N/N=C/c1ccncc1 [Example 40, (3-Fluoro-phenylamino)-acetic acid [1-pyridin-4-yl-meth-(E)-ylidene]-hydrazide] | 
10 | 5.00 to 6.00 | 5.00 to 6.00 | 5.00 to 6.00 | O=C(CNc1cccc(Cl)c1)N/N=C/c1c(Cl)cncc1Cl [Example 1, (3-Chloro-phenylamino)-acetic acid [1-(3,5-dichloro-pyridin-4-yl)-meth-(E)-ylidene]-hydrazide] | 
11 | 6.00 to 7.00 | 5.00 to 6.00 | < 5.00 | NS(=O)(=O)c1cccc(NCC(=O)N/N=C/c2ccncc2)c1 [Example 63, 3-{[1-Pyridin-4-yl-meth-(E)-ylidene-hydrazinocarbonylmethyl]-amino}-benzenesulfonamide] | 
12 | 6.00 to 7.00 | 6.00 to 7.00 | < 5.00 | CSc1cccc(NCC(=O)N/N=C/c2ccncc2)c1 [Example 48, (3-Methylsulfanyl-phenylamino)-acetic acid [1-pyridin-4-yl-meth-(E)-ylidene]-hydrazide] | 

The next lines start with the compound.

Row | Compound | pKi (hGRK-2) | pKi (GRK-3) | pKi (GRK-5) | PTM Cell Assay Result [1]
13 | O=C(CNc1cccc(C(=O)Nc2ccccc2)c1)N/N=C/c1c(Cl)cncc1Cl [drawing 112] |  |  |  | ++
14 | C/C(=N\NC(=O)CNc1cccc(OCc2ccccc2)c1)c1ccncc1 [Example 87, (3-Benzyloxy-phenylamino)-acetic acid [1-pyridin-4-yl-eth-(E)-ylidene]-hydrazide] | 6.00 to 7.00 | 6.00 to 7.00 | < 5.00 | 
15 | O=C(CNc1cccc(C(=O)Nc2cccnc2)c1)N/N=C/c1ccncc1 [drawing 114] |  |  |  | ++
16 | C/C(=N\NC(=O)CNc1cccc(C(=O)Nc2ccccc2)c1)c1ccncc1 [drawing 119] |  |  |  | +
17 | O=C(CNc1cccc(C(=O)NCCN2CCOCC2)c1)N/N=C/c1c(Cl)cncc1Cl [drawing 116] |  |  |  | +
18 | O=C(CNc1ccc(Oc2ccccc2)cc1)N/N=C/c1c(Cl)cncc1Cl |  |  |  | +
19 | COc1cc(/C=N/NC(=O)CNc2cccc(Cl)c2)nc(OC)n1 |  |  |  | +
20 | C/C(=N\NC(=O)CNc1cccc(C(=O)Nc2ccccc2)c1)c1ccncc1 [Example 90, N-Phenyl-3-{[1-pyridin-4-yl-eth-(E)-ylidene-hydrazinocarbonylmethyl]-amino}-benzamide] | 6.00 to 7.00 | 6.00 to 7.00 | < 5.00 | 
21 | NS(=O)(=O)c1cccc(NCC(=O)N/N=C/c2c(Cl)cncc2Cl)c1 [Example 22, 3-{[1-(3,5-Dichloro-pyridin-4-yl)-meth-(E)-ylidene-hydrazinocarbonylmethyl]-amino}-benzenesulfonamide] | 6.00 to 7.00 | 5.00 to 6.00 | 5.00 to 6.00 | 
22 | O=C(CNc1cccc(C(=O)Nc2ccccc2)c1)N/N=C/c1c(Cl)cncc1Cl [Example 97, 3-{[1-(3,5-Dichloro-pyridin-4-yl)-meth-(E)-ylidene-hydrazinocarbonylmethyl]-amino}-N-phenyl-benzamide] | 6.00 to 7.00 | 7.00 to 8.00 | 5.00 to 6.00 | 
23 | COc1ccc(Oc2cccc(NCC(=O)N/N=C/c3ccncc3)c2)cc1 |  |  |  | +
24 | O=C(CNc1cccc(C(=O)Nc2ccccc2)c1)N/N=C/c1ccncc1 [drawing 113] |  |  |  | ++
25 | CNC(=O)c1cccc(NCC(=O)N/N=C/c2c(Cl)cncc2Cl)c1 [drawing 118] |  |  |  | +
